Results from US20250034130A1, “Crystal Form of Tolebrutinib, Preparation Method Therefor and Use Thereof” (Principia Biopharma Inc., priority 2021, published 2025).
“Also recorded” adds a separate entry of the source.

Experiments:
Type in all cases: physicochemical
[1] = Stability at high temperature (80° C., 2 days, purity by UPLC); conditions: for Purity change / Chemical purity (in words): 2 days; for Purity change: glass vial with cap
Experimental: (§1) The related substance in the present disclosure was detected by UPLC and the parameters are shown below.
Certain amounts of Form CSII of the present disclosure and the prior art amorphous form were weighted and stored at 80° C. for 2 days, and the purities of the solids before and after storage were determined by UPLC, the results are as shown in Table 4.
Certain amounts of Form CSIII of the present disclosure and the prior art amorphous form were weighted and stored at 80° C. for 2 days, and the purities of the solids before and after storage were determined by UPLC, the results are as shown in Table 11.
Certain amounts of Form CSIV of the present disclosure and the prior art amorphous form were stored at 80° C. for 2 days, and the purities of the solids before and after storage were determined by UPLC, the results are as shown in Table 17.

[2] = Physical and chemical stability on storage in opened packages (purity by UPLC, solid form by XRPD); conditions: for Chemical purity after storage (in words): 60° C./75% RH (b74 also name 80° C. and light)
Experimental: X-ray powder diffraction patterns in the present disclosure were acquired by a Bruker X-ray powder diffractometer. The parameters of the X-ray powder diffraction method of the present disclosure are as follows: • X-Ray: Cu, Kα • Kα1 (Å): 1.54060; Kα2 (Å): 1.54439 • Kα2/Kα1 intensity ratio: 0.50
as §1
Said “room temperature” is not a specific temperature, but a temperature range of 10-30° C. Said “open packaged” is putting the sample into a glass vial, covering the vial with aluminum foil, and punching 5-10 holes on the foil.
Form CSII of the present disclosure and the prior art amorphous form were weighed and stored under 25° C./60% RH, 40° C./75% RH and 60° C./75% RH conditions, in opened packages, respectively. The purity and solid form were determined by UPLC and XRPD. The results are listed in Table 3, and the overlaid XRPD patterns of Form CSII before and after storage for stability evaluation are shown in FIG. 4.
Form CSIII of the present disclosure and the prior art amorphous form were weighed and stored under 25° C./60% RH, 40° C./75% RH and 60° C./75% RH conditions, in opened packages, respectively. The purity and solid form were determined by UPLC and XRPD. The results are listed in Table 10, and the overlaid XRPD patterns of Form CSIII before and after storage for stability evaluation are shown in FIG. 9.
Form CSIV of the present disclosure and the prior art amorphous form were weighed and stored under 25° C./60% RH and 40° C./75% RH conditions, in opened packages, respectively. The purity and solid form were determined by UPLC and XRPD. The results are listed in Table 16, and the overlaid XRPD patterns of Form CSIV before and after storage for stability evaluation are shown in FIG. 15.

[3] = Light stability (Chinese Pharmacopoeia method, purity by UPLC); conditions: light not less than 1.2×10^6 lux-hr, near-UV not less than 200 W-hr/m^2; for Purity change: 1 week; for Chemical purity (in words): about 1 week
Source text: as §1
Certain amounts of Form CSII of the present disclosure and the prior art amorphous form were weighted and stored for about 1 week, in accordance with the method of the Chinese Pharmacopoeia, under the condition that the total illumination of the light source was not less than […] and the energy of the near-ultraviolet lamp was not less than 200 W-hr/m^2, the purities of the solids before and after storage were measured by UPLC and the results are shown in Table 5.
Certain amounts of Form CSIII of the present disclosure and the prior art amorphous form were weighted and stored for about 1 week, in accordance with the method of the Chinese Pharmacopoeia, under the condition that the total illumination of the light source was not less than 1.2×10^6 lux-hr and the energy of the near-ultraviolet lamp was not less than 200 W-hr/m^2, the purities of the solids before and after storage were measured by UPLC and the results are shown in Table 12.
Certain amounts of Form CSIV of the present disclosure and the prior art amorphous form were weighted and stored for about 1 week, in accordance with the method of the Chinese Pharmacopoeia, under the condition that the total illumination of the light source was not less than 1.2×10^6 lux-hr and the energy of the near-ultraviolet lamp was not less than 200 W-hr/m^2, the purities of the solids before and after storage were measured by UPLC and the results are shown in Table 18.

[4] = Hygroscopicity by DVS (0% RH-95% RH-0% RH at 25° C.); conditions: for Weight gain at 80% RH: DVS; for Weight gain at 80% RH / Hygroscopicity class: 25° C.; for Hygroscopicity class: weight gain at 80% RH
Experimental: DVS was measured via an SMS (Surface Measurement Systems Ltd.) intrinsic DVS instrument.
Parameters for DVS method are as follows: • Temperature: 25° C. • Gas and flow rate: nitrogen, 200 mL/min • RH range: 0% RH to 95% RH • ^1H NMR were collected from a Bruker Avance II DMX 400M HZ NMR spectrometer. 1-5 mg of sample was weighed and dissolved in 0.5 mL of deuterated dimethyl sulfoxide to obtain a solution with a concentration of 2-10 mg/mL.
Certain amounts of Form CSII of the present disclosure and the prior art amorphous form were sampled for hygroscopicity tests using DVS instrument. The weight change at each relative humidity was recorded during the cycle of 0% RH-95% RH-0% RH at 25° C.
Description and definition of hygroscopicity (general notice 9103 drug hygroscopicity test guidelines in 2020 edition of Chinese Pharmacopoeia, experimental condition: 25±1° C., 80±2% RH):
Certain amounts of Form CSIII of the present disclosure and the prior art amorphous form were sampled for hygroscopicity tests using DVS instrument. The weight change at each relative humidity was recorded during the cycle of 0% RH-95% RH-0% RH at 25° C.
Certain amounts of Form CSIV of the present disclosure and the prior art amorphous form were sampled for hygroscopicity tests using DVS instrument. The weight change at each relative humidity was recorded during the cycle of 0% RH-95% RH-0% RH at 25° C.

[5] = Grinding stability (manual grinding 5 minutes in a mortar, XRPD); conditions: ground manually 5 minutes in a mortar
Experimental: Form CSII was grounded manually for 5 minutes in a mortar. XRPD was tested before and after the grinding.
Form CSIII was grounded manually for 5 minutes in a mortar. XRPD was tested before and after the grinding.
Form CSIV was grounded manually for 5 minutes in a mortar. XRPD was tested before and after the grinding.

[6] = Stability of crystalline form in tablet formulation process (XRPD before and after); conditions: tablets per Table 7 and Table 8, XRPD
Experimental: According to the formulation and process in Table 7 and Table 8, the tablets were prepared with an appropriate amount of Form CSII of the present disclosure. XRPD was tested before and after formulation.
According to the formulation and process in Table 7 and Table 8, the tablets were prepared with an appropriate amount of Form CSIII of the present disclosure. XRPD was tested before and after formulation.
According to the formulation and process in Table 7 and Table 8, the tablets were prepared with an appropriate amount of Form CSIV of the present disclosure. XRPD was tested before and after formulation.

[7] = 25° C./60% RH, 6 months, open package
[8] = 40° C./75% RH, 2 months, open package
[9] = 40° C./75% RH, 6 months, open package
[10] = 60° C./75% RH, 1 month, open package
[11] = Initial, ICH Q3A (R2) thresholds

## C=CC(=O)N1CCC[C@@H](n2c(=O)n(-c3ccc(Oc4ccccc4)cc3)c3c(N)nccc32)C1 [Amorphous, (R)-1-(1-acryloylpiperidin-3-yl)-4-amino-3-(4-phenoxyphenyl)-1H-imidazo[4,5-c] pyridin-2(3H)-one, reference compound]
[1]
  Purity change: −1.16%
[1]; listed as amorphous form
  Chemical purity (in words): significant degradation
[2]; [7]
  Purity: 99.57%
  Purity change: −0.23%
  Solid form: Amorphous
  The number of the purities exceeding the qualification thresholds: 1
[2]; 25° C./60% RH, 40° C./75% RH, listed as prior art amorphous form
  Chemical purity after storage (in words): decreased significantly
[2]; 25° C./60% RH, 40° C./75% RH, listed as prior art solid
  Chemical purity after storage (in words): decreases significantly
[2]; 40° C./75% RH, 2 months
  Purity decrease: 2.18%
[2]; [8]
  Purity: 97.62%
  Purity change: −2.18%
  Solid form: Amorphous
[2]; 40° C./75% RH, 6 months
  Purity decrease: 3.46%
[2]; [9]
  Purity: 96.34%
  Purity change: −3.46%
  Solid form: Amorphous
  The number of the purities exceeding the qualification thresholds: 4
[2]; 40° C./75% RH, 6 months, open package, listed as prior art amorphous form
  The number of the purities exceeding the qualification thresholds: four
[2]; 40° C./75% RH, 6 months, open package, listed as prior art solid
  The number of the purities exceeding the qualification thresholds: four
[2]; 60° C./75% RH, 1 month
  Purity decrease: over 6.3%
[2]; [10]
  Purity: 93.48%
  Purity change: −6.32%
  Solid form: Amorphous
  The number of the purities exceeding the qualification thresholds: 4
[2]; 60° C./75% RH, 1 month, open package, listed as prior art amorphous form
  The number of the purities exceeding the qualification thresholds: four
[2]; 60° C./75% RH, 1 month, open package, listed as prior art solid
  The number of the purities exceeding the qualification thresholds: four
[2]; Initial
  Purity: 99.80%
  Solid form: Amorphous
[2]; [11]
  The number of the purities exceeding the qualification thresholds: 1
[3]
  Purity change: −0.11%
[3]; listed as amorphous form
  Chemical purity (in words): significant degradation
[4]; 80% RH, listed as Prior art solid
  Weight gain at 80% RH: 3.69%
[4]; 80% RH, listed as The prior art amorphous form
  Weight gain at 80% RH: 3.69%
[4]; 80% RH, listed as prior art amorphous form
  Weight gain at 80% RH: 3.69%
[4]; 80% RH, listed as prior art solid
  Weight gain at 80% RH: 3.69%
[4]; listed as prior art amorphous form
  Hygroscopicity class: hygroscopic
[4]; listed as prior art solid
  Hygroscopicity class: hygroscopic

## C=CC(=O)N1CCC[C@@H](n2c(=O)n(-c3ccc(Oc4ccccc4)cc3)c3c(N)nccc32)C1 [Form CSII, (R)-1-(1-acryloylpiperidin-3-yl)-4-amino-3-(4-phenoxyphenyl)-1H-imidazo[4,5-c] pyridin-2(3H)-one]
[1]
  Time for which chemical purity remains substantially unchanged: at least 2 days
  Chemical purity (in words): basically remained unchanged
  Purity change: +0.01%
[2]; 25° C./60% RH
  Chemical purity during storage: above 99.8%
  Time for which the crystalline state doesn't change / form is stable: at least 6 months
[2]; [7]
  Purity: 99.89%
  Purity change: +0.03%
  The number of the purities exceeding the qualification thresholds: 0
[2]; 40° C./75% RH
  Time for which the crystalline state doesn't change / form is stable: at least 6 months
[2]; 40° C./75% RH and 60° C./75% RH
  Chemical purity during storing: above 99.8%
[2]; [9]
  Purity: 99.87%
  Purity change: +0.01%
  The number of the purities exceeding the qualification thresholds: 0
[2]; 60° C./75% RH
  Time for which the crystalline state doesn't change: at least 1 month
[2]; 60° C./75% RH, 1 month
  Solid form and purity after storage: remained basically unchanged
[2]; [10]
  Purity: 99.82%
  Purity change: −0.04%
  The number of the purities exceeding the qualification thresholds: 0
[2]; Initial
  Purity: 99.86%
[2]; [11]
  The number of the purities exceeding the qualification thresholds: 0
[2]; throughout the stability investigation processes
  Impurity content versus qualification threshold: did not exceed the qualification thresholds; also recorded: did not exceed the qualificated threshold
[3]
  Purity change: −0.02%
  Chemical purity (in words): basically remained unchanged
  Time for which there is no change in the purity: at least 1 week
[5]
  Crystalline state after grinding: remains unchanged
[4]; 80% RH
  Weight gain relative to that of the prior art: ⅙
  Weight gain at 80% RH: 0.60%
[4]; XRPD before and after DVS
  Crystalline state after the DVS test: remained unchanged
[4]
  Hygroscopicity class: slightly hygroscopic
[6]
  Crystalline state after formulation process (mixed with excipients, tableted): remained unchanged; also recorded: did not change
